Values after ≈ are worked out from the molar mass of the structure shown. Non-standard residues stand in square brackets, D forms with d. Residues, ends and D or L forms follow the SMILES beside them.
How the values were obtained:
human erythrocytes = experiment: Hemolytic activity (HC50); format: cell-based; settings: for Hemolytic activity HC50: concentration giving 50% hemolysis after 18 h at 37 °C, 1% human erythrocytes in PBS pH 7.4, hemoglobin release at 570 nm, 100% control water (Figure 7)
Protocol: Hemoglobin release was determined spectrophotometrically at 570 nm.
From these plots, the HC50 values, the peptide concentration that produces 50% hemolysis of human red blood cells after 18 hours in the standard microtiter dilution method was determined.

[1] = test system: Pseudomonas aeruginosa (6 different isolates); settings: geometric mean of the MIC values from 6 different isolates of P. aeruginosa; Table 3B
Text: (§1) P. aeruginosa strains used are as follows: strain PAO1 was isolated from a human wound in 1955 in Australia; strain WR5 was isolated from a burn patient at Walter Reed Army Hospital, Washington, DC, USA, in 1976 and is a natural toxA^− mutant, but is virulent in experimental mouse models; strain PAK was originally isolated at Memorial University, St. John’s, Newfoundland, Canada, and is widely used in the analysis of pili; strain PA14 was originally isolated as a clinical isolate in 1995 at the Massachusetts General Hospital, Boston, MA, USA and is virulent in a variety of plant and animal models of infection; strain M2 was originally isolated in 1975 from the gastrointestinal tract of a healthy CF1 mouse, University of Cincinnati College of Medicine, and Shriners Burns Institute, Cincinnati, OH, USA and is virulent in a burn mouse model of P. aeruginosa infection; and strain CP204 was isolated from a cystic fibrosis patient in 1989 at the National Jewish Medical and Research Center, Denver, CO, USA. All strains have been maintained at −80 °C in the laboratory of Michael Vasil, University of Colorado, School of Medicine.
(§2) The minimal inhibitory concentration (MIC) is defined as the lowest peptide concentration that inhibited bacterial growth. MICs were measured by a standard microtiter dilution method in Mueller Hinton (MH) medium. Briefly, cells were grown overnight at 37 °C in MH broth and were diluted in the same medium. […] The plates were incubated at 37 °C for 24 h, and the MICs were determined.
Geometric mean of MIC values was calculated to provide an overall view of antimicrobial activity of different analogs.

[2] = test system: Acinetobacter baumannii (11 different isolates); format: cell-based; settings: geometric mean of the MIC values from 11 different isolates of A. baumannii; Table 3A
Text: (§3) All the A. baumannii strains used in this study were (1) obtained from the collection of Dr. Anthony A. Campagnari at the University of Buffalo and originally isolated from different patients and organs/tissues (strain 649, blood; strain 689, groin; strain 759, gluteus; strain 821, urine; strain 884, axilla; strain 899, perineum; strain 964, throat; strain 985, pleural fluid and strain 1012, sputum); (2) were purchased from the American Type Culture Collection (ATCC, Manassas, VA, USA) (strain ATCC 17978, fatal meningitis; and strain ATCC 19606, urine).
(§4) The minimal inhibitory concentration (MIC) is defined as the lowest peptide concentration that inhibited bacterial growth. MICs were measured by a standard microtiter dilution method in Mueller Hinton (MH) medium. Briefly, cells were grown overnight at 37 °C in MH broth and were diluted in the same medium. Serial dilutions of the peptides were added to the microtiter plates in a volume of 50 µL, followed by the addition of 50 µL of bacteria to give a final inoculum of 5 × 10^5 colony-forming units (CFU)/mL. The plates were incubated at 37 °C for 24 h, and the MICs were determined.
Antibacterial activities against six strains of P. aeruginosa and eleven strains of A. baumannii are compared in Table 3. Geometric mean of MIC values was calculated to provide an overall view of antimicrobial activity of different analogs. It is clear that our peptides were effective in killing the microorganisms tested. Compared to a dramatic reduction in hemolytic activity, antibacterial activity of D-piscidin 1 and D-dermaseptin S4 analogs against eleven strains of A. baumannii maintained the same level (within 2-fold) upon the substitution of “specificity determinant(s)” (Table 3).

A. baumannii strain 821 = experiment: MIC, microtiter dilution; format: cell-based, Acinetobacter baumannii; settings: source urine; Mueller-Hinton medium, 37 °C, 24 h, 5 × 10^5 CFU/mL; three sets of determinations
Text: as §3, §4

A. baumannii strain 759 = experiment: MIC, microtiter dilution; format: cell-based, Acinetobacter baumannii; settings: source gluteus; Mueller-Hinton medium, 37 °C, 24 h, 5 × 10^5 CFU/mL; three sets of determinations
Text: as §3, §4

A. baumannii strain 884 = experiment: MIC, microtiter dilution; format: cell-based, Acinetobacter baumannii; settings: source axilla; Mueller-Hinton medium, 37 °C, 24 h, 5 × 10^5 CFU/mL; three sets of determinations
Text: as §3, §4

[3] = test system: A. baumannii strain ATCC 19606; experiment: MIC, microtiter dilution; format: cell-based, Acinetobacter baumannii; settings: source urine; Mueller-Hinton medium, 37 °C, 24 h, 5 × 10^5 CFU/mL; three sets of determinations
Text: as §3, §4

A. baumannii strain 649 = experiment: MIC, microtiter dilution; format: cell-based, Acinetobacter baumannii; settings: source blood; Mueller-Hinton medium, 37 °C, 24 h, 5 × 10^5 CFU/mL; three sets of determinations
Text: as §3, §4

[4] = test system: A. baumannii strain ATCC 17978; format: cell-based, Acinetobacter baumannii; settings: ATCC 17978, 24 h
Text: as §3, §4

A. baumannii strain 689 = format: cell-based, Acinetobacter baumannii; settings: source groin; Mueller-Hinton medium, 37 °C, 24 h, 5 × 10^5 CFU/mL; three sets of determinations
Text: as §3, §4

A. baumannii strain 899 = format: cell-based, Acinetobacter baumannii; settings: source perineum; Mueller-Hinton medium, 37 °C, 24 h, 5 × 10^5 CFU/mL; three sets of determinations
Text: as §3, §4

A. baumannii strain 1012 = format: cell-based, Acinetobacter baumannii; settings: source sputum; Mueller-Hinton medium, 37 °C, 24 h, 5 × 10^5 CFU/mL; three sets of determinations
Text: as §3, §4

A. baumannii strain 964 = format: cell-based, Acinetobacter baumannii; settings: source throat; Mueller-Hinton medium, 37 °C, 24 h, 5 × 10^5 CFU/mL; three sets of determinations
Text: as §3, §4

A. baumannii strain 985 = format: cell-based, Acinetobacter baumannii; settings: source pleural fluid; Mueller-Hinton medium, 37 °C, 24 h, 5 × 10^5 CFU/mL; three sets of determinations
Text: as §3, §4

[5] = test system: P. aeruginosa strain CP204; settings: source cystic fibrosis patient; Mueller-Hinton medium, 37 °C, 24 h, 5 × 10^5 CFU/mL; three sets of determinations
Text: as §1, §2

P. aeruginosa strain WR5 = settings: source burn patient; Mueller-Hinton medium, 37 °C, 24 h, 5 × 10^5 CFU/mL; three sets of determinations
Text: as §1, §2

P. aeruginosa strain M2 = settings: source burn mouse model; Mueller-Hinton medium, 37 °C, 24 h, 5 × 10^5 CFU/mL; three sets of determinations
Text: as §1, §2

[6] = test system: P. aeruginosa strain PA14; settings: Mueller-Hinton medium, 37 °C, 24 h, 5 × 10^5 CFU/mL; three sets of determinations
Text: as §1, §2

[7] = test system: P. aeruginosa strain PAO1; settings: source human wound; Mueller-Hinton medium, 37 °C, 24 h, 5 × 10^5 CFU/mL; three sets of determinations
Text: as §1, §2

P. aeruginosa strain PAK = settings: Mueller-Hinton medium, 37 °C, 24 h, 5 × 10^5 CFU/mL; three sets of determinations
Text: as §1, §2

Structure (SMILES) | Hemolytic activity HC50 (human erythrocytes) | MIC GM [1] | MIC GM [2] | MIC 821 (A. baumannii strain 821) | MIC 759 (A. baumannii strain 759) | MIC 884 (A. baumannii strain 884) | MIC ATCC19606 [3] | MIC 649 (A. baumannii strain 649) | MIC ATCC17978 [4] | MIC 689 (A. baumannii strain 689) | MIC 899 (A. baumannii strain 899) | MIC 1012 (A. baumannii strain 1012) | MIC 964 (A. baumannii strain 964) | MIC 985 (A. baumannii strain 985) | MIC CP204 [5] | MIC WR5 (P. aeruginosa strain WR5) | MIC M2 (P. aeruginosa strain M2) | MIC PA14 [6] | MIC PAO1 [7] | MIC PAK (P. aeruginosa strain PAK) | also measured
CC[C@@H](C)[C@@H](NC(=O)[C@@H](Cc1c[nH]cn1)NC(=O)[C@@H](Cc1c[nH]cn1)NC(=O)[C@@H](Cc1ccccc1)NC(=O)[C@H](N)Cc1ccccc1)C(=O)N[C@H](Cc1ccccc1)C(=O)N[C@H](CCCNC(=N)N)C(=O)NCC(=O)N[C@H](CCCCN)C(=O)N[C@@H](C(=O)N[C@H](Cc1c[nH]cn1)C(=O)N[C@@H](C(=O)NCC(=O)N[C@H](CCCCN)C(=O)N[C@@H](C(=O)N[C@@H](C(=O)N[C@H](Cc1c[nH]cn1)C(=O)N[C@H](CCCNC(=N)N)C(=O)N[C@H](CC(C)C)C(=O)N[C@@H](C(=O)N[C@@H](C(=O)NCC(N)=O)[C@H](C)O)C(C)C)[C@H](C)CC)[C@H](C)O)C(C)C)C(C)C [D-Piscidin 1 I9K] (H-[dF][dF][dH][dH][dI][dF][dR]G[dK][dV][dH][dV]G[dK][dT][dI][dH][dR][dL][dV][dT]G-NH2) | 98 µM | 30.5 µM (≈ 78.9 µg/mL) | 3.0 µM (≈ 7.76 µg/mL) | 3.0 µM (≈ 7.76 µg/mL) | 3.0 µM (≈ 7.76 µg/mL) | 3.0 µM (≈ 7.76 µg/mL) | 1.5 µM (≈ 3.88 µg/mL) | 3.0 µM (≈ 7.76 µg/mL) | 3.0 µM (≈ 7.76 µg/mL) | 3.0 µM (≈ 7.76 µg/mL) | 3.0 µM (≈ 7.76 µg/mL) | 6.0 µM (≈ 15.5 µg/mL) | 3.0 µM (≈ 7.76 µg/mL) | 3.0 µM (≈ 7.76 µg/mL) | 48.3 µM (≈ 125 µg/mL) | 24.2 µM (≈ 62.6 µg/mL) | 48.3 µM (≈ 125 µg/mL) | 24.2 µM (≈ 62.6 µg/mL) | 48.3 µM (≈ 125 µg/mL) | 12.1 µM (≈ 31.3 µg/mL) | Hemolytic activity Fold improvement in HC50 (human erythrocytes): 54 fold; Hemolytic activity HC50, 18 hours (Figure 8 comparison) (human erythrocytes; 18 hours at 37 °C, human red blood cells, Figure 8, 100% control 0.1% Triton-X 100): 115 µM
CC[C@@H](C)[C@@H](NC(=O)CNC(=O)[C@@H](CCCNC(=N)N)NC(=O)[C@@H](Cc1ccccc1)NC(=O)[C@H](NC(=O)[C@@H](Cc1c[nH]cn1)NC(=O)[C@@H](Cc1c[nH]cn1)NC(=O)[C@@H](Cc1ccccc1)NC(=O)[C@H](N)Cc1ccccc1)[C@H](C)CC)C(=O)N[C@@H](C(=O)N[C@H](Cc1c[nH]cn1)C(=O)N[C@H](CCCCN)C(=O)NCC(=O)N[C@H](CCCCN)C(=O)N[C@@H](C(=O)N[C@@H](C(=O)N[C@H](Cc1c[nH]cn1)C(=O)N[C@H](CCCNC(=N)N)C(=O)N[C@H](CC(C)C)C(=O)N[C@@H](C(=O)N[C@@H](C(=O)NCC(N)=O)[C@H](C)O)C(C)C)[C@H](C)CC)[C@H](C)O)C(C)C [D-Piscidin 1 V12K] (H-[dF][dF][dH][dH][dI][dF][dR]G[dI][dV][dH][dK]G[dK][dT][dI][dH][dR][dL][dV][dT]G-NH2) | 35 µM | 17.0 µM (≈ 44.2 µg/mL) | 2.8 µM (≈ 7.28 µg/mL) | 3.0 µM (≈ 7.8 µg/mL) | 3.0 µM (≈ 7.8 µg/mL) | 3.0 µM (≈ 7.8 µg/mL) | 3.0 µM (≈ 7.8 µg/mL) | 3.0 µM (≈ 7.8 µg/mL) | 3.0 µM (≈ 7.8 µg/mL) | 3.0 µM (≈ 7.8 µg/mL) | 3.0 µM (≈ 7.8 µg/mL) | 3.0 µM (≈ 7.8 µg/mL) | 3.0 µM (≈ 7.8 µg/mL) | 1.5 µM (≈ 3.9 µg/mL) | 24.0 µM (≈ 62.4 µg/mL) | 12.0 µM (≈ 31.2 µg/mL) | 24.0 µM (≈ 62.4 µg/mL) | 24.0 µM (≈ 62.4 µg/mL) | 24.0 µM (≈ 62.4 µg/mL) | 6.0 µM (≈ 15.6 µg/mL) | –
CC[C@@H](C)[C@@H](NC(=O)CNC(=O)[C@@H](CCCNC(=N)N)NC(=O)[C@@H](Cc1ccccc1)NC(=O)[C@H](NC(=O)[C@@H](Cc1c[nH]cn1)NC(=O)[C@@H](Cc1c[nH]cn1)NC(=O)[C@@H](Cc1ccccc1)NC(=O)[C@H](N)Cc1ccccc1)[C@H](C)CC)C(=O)N[C@@H](C(=O)N[C@H](Cc1c[nH]cn1)C(=O)N[C@@H](C(=O)NCC(=O)N[C@H](CCCCN)C(=O)N[C@@H](C(=O)N[C@@H](C(=O)N[C@H](Cc1c[nH]cn1)C(=O)N[C@H](CCCNC(=N)N)C(=O)N[C@H](CC(C)C)C(=O)N[C@@H](C(=O)N[C@@H](C(=O)NCC(N)=O)[C@H](C)O)C(C)C)[C@H](C)CC)[C@H](C)O)C(C)C)C(C)C [D-Piscidin 1] (H-[dF][dF][dH][dH][dI][dF][dR]G[dI][dV][dH][dV]G[dK][dT][dI][dH][dR][dL][dV][dT]G-NH2) | 1.8 µM | 19.3 µM (≈ 49.6 µg/mL) | 2.8 µM (≈ 7.2 µg/mL) | 3.0 µM (≈ 7.71 µg/mL) | 3.0 µM (≈ 7.71 µg/mL) | 3.0 µM (≈ 7.71 µg/mL) | 3.0 µM (≈ 7.71 µg/mL) | 3.0 µM (≈ 7.71 µg/mL) | 3.0 µM (≈ 7.71 µg/mL) | 1.5 µM (≈ 3.86 µg/mL) | 3.0 µM (≈ 7.71 µg/mL) | 6.1 µM (≈ 15.7 µg/mL) | 3.0 µM (≈ 7.71 µg/mL) | 1.5 µM (≈ 3.86 µg/mL) | 24.3 µM (≈ 62.5 µg/mL) | 12.2 µM (≈ 31.4 µg/mL) | 24.3 µM (≈ 62.5 µg/mL) | 24.3 µM (≈ 62.5 µg/mL) | 24.3 µM (≈ 62.5 µg/mL) | 12.2 µM (≈ 31.4 µg/mL) | Hemolytic activity Fold improvement in HC50 (human erythrocytes): 1.0 fold

Source: publication PMC4014698 (Pharmaceuticals, 2014)
